Test results published in the supplement of paper PMC11061612.

Key:
Test in all cases: Bliss excess, mean over the matrix (fraction); higher = more synergy
[1] = system: OVKATE (Ovarian Carcinoma)
In short: (§1)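 Bliss excess equals the observed combination effect minus the expected value EA + EB − EA·EB, where EA and EB are the effects of each agent alone. Combination Emax is the second-highest inhibition within the matrix. Inhibition was scaled from CellTiter-Glo 2.0 luminescence, with 0 set by vehicle wells and 1 by blank wells, after 72 hours of two-drug dosing of cells plated in 1536-well plates.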

[2] = system: NCI-H1435 (Non-Small Cell Lung Carcinoma)
In short: as §1

[3] = system: NTERA-2-cl-D1 (Other Solid Carcinomas)
In short: as §1

GCIY (Gastric Carcinoma) = system: GCIY (Gastric Carcinoma)
In short: as §1

[4] = system: MRK-nu-1 (Breast Carcinoma)
In short: as §1

[5] = system: SBC-3 (Small Cell Lung Carcinoma)
In short: as §1

[6] = system: RPMI-8402 (T-Lymphoblastic Leukemia)
In short: as §1

[7] = system: NCI-H835 (Other Solid Carcinomas)
In short: as §1

[8] = system: NCI-H1048 (Small Cell Lung Carcinoma)
In short: as §1

[9] = system: GRANTA-519 (B-Cell Non-Hodgkin's Lymphoma)
In short: as §1

[10] = system: NCI-H1944 (Lung Adenocarcinoma)
In short: as §1

[11] = system: SNU-1 (Gastric Carcinoma)
In short: as §1

[12] = system: JURL-MK1 (Chronic Myelogenous Leukemia)
In short: as §1

[13] = system: NCI-H1975 (Lung Adenocarcinoma)
In short: as §1

[14] = system: Daudi (Burkitt's Lymphoma)
In short: as §1

[15] = system: ATN-1 (T-Lymphoblastic Leukemia)
In short: as §1

Structure (SMILES) | Bliss excess [1] | Bliss excess [2] | Bliss excess [3] | Bliss excess (GCIY (Gastric Carcinoma)) | Bliss excess [4] | Bliss excess [5] | Bliss excess [6] | Bliss excess [7] | Bliss excess [8] | Bliss excess [9] | Bliss excess [10] | Bliss excess [11] | Bliss excess [12] | Bliss excess [13] | Bliss excess [14] | Bliss excess [15]
C=CCn1c(=O)c2cnc(Nc3ccc(N4CCN(C)CC4)cc3)nc2n1-c1cccc(C(C)(C)O)n1 [AZD1775] + Nc1ccn([C@@H]2O[C@H](CO)[C@@H](O)C2(F)F)c(=O)n1 [Gemcitabine] (first compound max 1 µM, partner max 0.3 µM) | -0.0681 | -0.0012 | -0.062 | 0.0465 | 0.045 | -0.0105 | 0.0141 | -0.0789 | – | – | – | – | – | – | – | –
CN(CCO)CC[C@H](CSc1ccccc1)Nc1ccc(S(=O)(=O)NC(=O)c2ccc(N3CCC([C@@H](O)c4ccccc4-c4ccc(Cl)cc4)CC3)cc2)cc1S(=O)(=O)C(F)(F)F [AZD4320] + CS(=O)(=O)CCNCc1ccc(-c2ccc3ncnc(Nc4ccc(OCc5cccc(F)c5)c(Cl)c4)c3c2)o1 [Lapatinib] (first compound max 1 µM, 7x7, partner max 10 µM) | -0.0082 | 0.0765 | -0.026 | 0.0352 | -0.0167 | 0.052 | 0.0949 | 0.0449 | – | – | – | – | – | – | – | –
COc1nnc2ccc(N3CCC(c4ccc(OCCN5CCN(C)C(=O)[C@H]5C)cc4)CC3)nn12 [AZD5153] + CN(CC[C@H](CSC1=CC=CC=C1)NC2=C(C=C(C=C2)S(=O)(=O)NC(=O)C3=CC=C(C=C3)N4CCC(CC4)[C@H](C5=CC=CC=C5C6=CC=C(C=C6)Cl)O)S(=O)(=O)C(F)(F)F)CCO [AZD4320] (first compound max 1 µM, 7x7, partner max 1 µM) | – | – | – | – | – | – | – | – | 0.0831 | 0.0352 | 0.0269 | 0.0023 | -0.0137 | -0.012 | 0.0159 | -0.0165
Cc1c2c(nn1C)CSCc1cc(n(C)n1)CSc1cc(c3ccccc3c1)OCCCc1c(C(=O)O)n(C)c3c-2c(Cl)ccc13 [AZD5991] + CC(=O)O[C@H]1C(=O)[C@@]2(C)[C@H]([C@H](OC(=O)c3ccccc3)[C@]3(O)C[C@H](OC(=O)[C@H](O)[C@@H](NC(=O)c4ccccc4)c4ccccc4)C(C)=C1C3(C)C)[C@]1(OC(C)=O)CO[C@@H]1C[C@@H]2O [Paclitaxel] (first compound max 1 µM, 7x7, partner max 3 µM) | -0.0107 | 0.0254 | 0.111 | -0.0262 | 0.0286 | -0.0404 | 0.0139 | 0.0252 | – | – | – | – | – | – | – | –
Cc1c2c(nn1C)CSCc1cc(n(C)n1)CSc1cc(c3ccccc3c1)OCCCc1c(C(=O)O)n(C)c3c-2c(Cl)ccc13 [AZD5991] + CS(=O)(=O)CCNCc1ccc(-c2ccc3ncnc(Nc4ccc(OCc5cccc(F)c5)c(Cl)c4)c3c2)o1 [Lapatinib] (first compound max 1 µM, 7x7, partner max 10 µM) | -0.0552 | -0.0063 | -0.0334 | 0.013 | 0.0112 | -0.0235 | 0.0115 | 0.019 | – | – | – | – | – | – | – | –
Cc1c2c(nn1C)CSCc1cc(n(C)n1)CSc1cc(c3ccccc3c1)OCCCc1c(C(=O)O)n(C)c3c-2c(Cl)ccc13 [AZD5991] + Nc1ccn([C@@H]2O[C@H](CO)[C@@H](O)C2(F)F)c(=O)n1 [Gemcitabine] (first compound max 1 µM, 7x7, partner max 0.3 µM) | -0.0373 | -0.0706 | -0.0695 | 0.0091 | 0.0571 | 0.0059 | 0.0264 | 0.0842 | – | – | – | – | – | – | – | –
C[C@@H]1COCCN1c1cc(C2([S@](C)(=N)=O)CC2)nc(-c2ccnc3[nH]ccc23)n1 [AZD6738] + C1CC(C1)(C(=O)[O-])C(=O)[O-].N.N.[Pt+2] [Carboplatin] (first compound max 10 µM, 7x7, partner max 10 µM) | -0.0642 | -0.0103 | -0.0651 | -0.066 | -0.0127 | -0.031 | -0.0461 | -0.0529 | – | – | – | – | – | – | – | –
C[C@@H]1COCCN1c1cc(C2([S@](C)(=N)=O)CC2)nc(-c2ccnc3[nH]ccc23)n1 [AZD6738] + Nc1ccn([C@@H]2O[C@H](CO)[C@@H](O)C2(F)F)c(=O)n1 [Gemcitabine] (first compound max 10 µM, 7x7, partner max 0.3 µM) | -0.0172 | 0.0799 | -0.0019 | -0.0362 | -0.0532 | 0.0306 | 0.0319 | 0.0442 | – | – | – | – | – | – | – | –
C[C@@H](Nc1cc(F)cc(F)c1)c1cc(C(=O)N(C)C)cc2c(=O)cc(N3CCOCC3)oc12 [AZD8186] + CC(=O)c1c(C)c2cnc(Nc3ccc(N4CCNCC4)cn3)nc2n(C2CCCC2)c1=O [Palbociclib] (first compound max 10 µM, 7x7, partner max 10 µM) | -0.0096 | 0.0802 | 0.0104 | 0.0171 | 0.0696 | 0.0742 | 0.0013 | 0.0763 | – | – | – | – | – | – | – | –
C[C@@H](Oc1cc(-c2cnn(C3CCNCC3)c2)cnc1N)c1c(Cl)ccc(F)c1Cl [Crizotinib] + CC1=C(C(=CC=C1)Cl)NC(=O)C2=CN=C(S2)NC3=CC(=NC(=N3)C)N4CCN(CC4)CCO [Dasatinib] (first compound max 10 µM, 7x7, partner max 2 µM) | 0.06 | 0.0039 | 0.0073 | 0.0537 | -0.0711 | 0.0493 | 0.0006 | 0.0045 | – | – | – | – | – | – | – | –
C[C@@H](Oc1cc(-c2cnn(C3CCNCC3)c2)cnc1N)c1c(Cl)ccc(F)c1Cl [Crizotinib] + Cn1cnc2c(F)c(Nc3ccc(Br)cc3Cl)c(C(=O)NOCCO)cc21 [Selumetinib] (first compound max 10 µM, 7x7, partner max 10 µM) | -0.0392 | -0.0088 | -0.027 | -0.0266 | -0.0633 | -0.0502 | -0.0606 | -0.0653 | – | – | – | – | – | – | – | –
CS(=O)(=O)CCNCc1ccc(-c2ccc3ncnc(Nc4ccc(OCc5cccc(F)c5)c(Cl)c4)c3c2)o1 [Lapatinib] + NC1(c2ccc(-c3nc4ccn5c(=O)[nH]nc5c4cc3-c3ccccc3)cc2)CCC1 [MK-2206] (first compound max 10 µM, 7x7, partner max 10 µM) | -0.031 | 0.0601 | 0.0305 | 0.0484 | 0.0505 | 0.0258 | 0.0064 | 0.0357 | – | – | 0.0376 | – | – | – | – | –
O=C(c1cc(Cc2n[nH]c(=O)c3ccccc23)ccc1F)N1CCN(C(=O)C2CC2)CC1 [Olaparib] + CC1(C)CCC(CN2CCN(c3ccc(C(=O)NS(=O)(=O)c4ccc(NCC5CCOCC5)c([N+](=O)[O-])c4)c(Oc4cnc5[nH]ccc5c4)c3)CC2)=C(c2ccc(Cl)cc2)C1 [Venetoclax] (first compound max 10 µM, 7x7, partner max 1 µM) | -0.0355 | -0.01 | -0.0419 | -0.0547 | 0.0277 | -0.0063 | -0.0163 | -0.0096 | – | – | – | – | – | – | – | –
O=C(c1cc(Cc2n[nH]c(=O)c3ccccc23)ccc1F)N1CCN(C(=O)C2CC2)CC1 [Olaparib] + CN(CC[C@H](CSC1=CC=CC=C1)NC2=C(C=C(C=C2)S(=O)(=O)NC(=O)C3=CC=C(C=C3)N4CCC(CC4)[C@H](C5=CC=CC=C5C6=CC=C(C=C6)Cl)O)S(=O)(=O)C(F)(F)F)CCO [AZD4320] (first compound max 10 µM, 7x7, partner max 1 µM) | -0.0469 | -0.0086 | 0.0258 | 0.0025 | 0.0031 | 0.0197 | 0.0077 | -0.043 | – | – | – | – | – | – | – | –
O=C(c1cc(Cc2n[nH]c(=O)c3ccccc23)ccc1F)N1CCN(C(=O)C2CC2)CC1 [Olaparib] + COc1nnc2ccc(N3CCC(c4ccc(OCCN5CCN(C)C(=O)[C@H]5C)cc4)CC3)nn12 [AZD5153] (first compound max 10 µM, 7x7, partner max 1 µM) | -0.0686 | -0.022 | -0.127 | -0.0248 | 0.0665 | -0.0786 | -0.0277 | -0.0422 | – | – | – | – | – | – | – | –
O=C(c1cc(Cc2n[nH]c(=O)c3ccccc23)ccc1F)N1CCN(C(=O)C2CC2)CC1 [Olaparib] + Cc1c2c(nn1C)CSCc1cc(n(C)n1)CSc1cc(c3ccccc3c1)OCCCc1c(C(=O)O)n(C)c3c-2c(Cl)ccc13 [AZD5991] (first compound max 10 µM, 7x7, partner max 1 µM) | -0.0525 | -0.0055 | 0.0289 | -0.041 | 0.0135 | -0.0134 | -0.0419 | -0.0467 | – | – | – | – | – | – | – | –
CC(=O)c1c(C)c2cnc(Nc3ccc(N4CCNCC4)cn3)nc2n(C2CCCC2)c1=O [Palbociclib] + CN(CC[C@H](CSC1=CC=CC=C1)NC2=C(C=C(C=C2)S(=O)(=O)NC(=O)C3=CC=C(C=C3)N4CCC(CC4)[C@H](C5=CC=CC=C5C6=CC=C(C=C6)Cl)O)S(=O)(=O)C(F)(F)F)CCO [AZD4320] (first compound max 10 µM, 7x7, partner max 1 µM) | – | – | – | – | – | – | – | – | 0.019 | 0.0102 | -0.0915 | -0.066 | -0.075 | -0.0291 | 0.0218 | -0.0253
Cc1nc(-c2cn3c(n2)-c2ccc(-c4cnn(C(C)(C)C(N)=O)c4)cc2OCC3)n(C(C)C)n1 [Taselisib] + O=C(Nc1ccc2[nH]nc(-c3ccncc3)c2c1)[C@@H]1CCN(CC(=O)N2CCN(c3ccc(-c4ncccn4)cc3)CC2)C1 [SCH772984] (first compound max 10 µM, 7x7, partner max 5 µM) | 0.0487 | 0.0352 | -0.0322 | -0.0131 | 0.0385 | 0.11 | 0.0802 | 0.0323 | – | – | – | – | – | – | – | –
CC1(C)CCC(CN2CCN(c3ccc(C(=O)NS(=O)(=O)c4ccc(NCC5CCOCC5)c([N+](=O)[O-])c4)c(Oc4cnc5[nH]ccc5c4)c3)CC2)=C(c2ccc(Cl)cc2)C1 [Venetoclax] + CS(=O)(=O)CCNCc1ccc(-c2ccc3ncnc(Nc4ccc(OCc5cccc(F)c5)c(Cl)c4)c3c2)o1 [Lapatinib] (first compound max 1 µM, 7x7, partner max 10 µM) | -0.035 | 0.0073 | -0.0618 | -0.0655 | -0.0243 | -0.0339 | -0.0163 | -0.0206 | – | – | – | – | – | – | – | –
